The text below walks through data of patent US8148391B2 (Cephalon, Inc., priority 2006, dated 2012).

SMILES strings stand for the structures.

In assay [1] the target is T1, baculovirus-expressed ALK (Homo sapiens, UniProt Q9UM73).
T1 construct: host or cells: baculovirus expression system
Description: ALK Kinase Assay (ELISA-type, time-resolved fluorescence). The following applies: 1 μM ATP (Km level), 30 ng/ml ALK, 37° C., 15 minutes; read-out: ALK Activity (ALK kinase inhibition, IC50 class). Type of assay: biochemical. Summed up: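 Wells were coated with phospholipase C-γ at 10 μg/mL in Tris-buffered saline. Adding 30 ng/ml enzyme started the reaction, which ran at 37° C for 15 minutes before Eu-N1 PT66 antibody detection. Percent inhibition versus log10 concentration gave IC50 by variable-slope fit.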
Background: In an ELISA, binding on a coated surface is turned into a signal by an enzyme label.

The target of assay [2] is T2, c-Met (cytoplasmic domain) (Homo sapiens, UniProt P08581).
T2 construct: 10 ng/mL c-Met (cytoplasmic domain, Invitrogen Corporation #PV3143); purchased Invitrogen Corporation PV3143
Description: c-Met Kinase Assay (same methods as for ALK, with modifications). Type of assay: biochemical. The following applies: 1 μM ATP (Km level), 10 ng/mL c-Met; read-out: cMet Activity (c-Met kinase inhibition, IC50 class). Summed up: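 Steps: coat wells with PLC-γ (10 μg/mL, Tris-buffered saline); add 10 ng/mL c-Met cytoplasmic domain to initiate; incubate 15 min, 37° C; detect phosphoproduct via Eu-N1 PT66 antibody.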

T1 sequence (Q9UM73 19-1620): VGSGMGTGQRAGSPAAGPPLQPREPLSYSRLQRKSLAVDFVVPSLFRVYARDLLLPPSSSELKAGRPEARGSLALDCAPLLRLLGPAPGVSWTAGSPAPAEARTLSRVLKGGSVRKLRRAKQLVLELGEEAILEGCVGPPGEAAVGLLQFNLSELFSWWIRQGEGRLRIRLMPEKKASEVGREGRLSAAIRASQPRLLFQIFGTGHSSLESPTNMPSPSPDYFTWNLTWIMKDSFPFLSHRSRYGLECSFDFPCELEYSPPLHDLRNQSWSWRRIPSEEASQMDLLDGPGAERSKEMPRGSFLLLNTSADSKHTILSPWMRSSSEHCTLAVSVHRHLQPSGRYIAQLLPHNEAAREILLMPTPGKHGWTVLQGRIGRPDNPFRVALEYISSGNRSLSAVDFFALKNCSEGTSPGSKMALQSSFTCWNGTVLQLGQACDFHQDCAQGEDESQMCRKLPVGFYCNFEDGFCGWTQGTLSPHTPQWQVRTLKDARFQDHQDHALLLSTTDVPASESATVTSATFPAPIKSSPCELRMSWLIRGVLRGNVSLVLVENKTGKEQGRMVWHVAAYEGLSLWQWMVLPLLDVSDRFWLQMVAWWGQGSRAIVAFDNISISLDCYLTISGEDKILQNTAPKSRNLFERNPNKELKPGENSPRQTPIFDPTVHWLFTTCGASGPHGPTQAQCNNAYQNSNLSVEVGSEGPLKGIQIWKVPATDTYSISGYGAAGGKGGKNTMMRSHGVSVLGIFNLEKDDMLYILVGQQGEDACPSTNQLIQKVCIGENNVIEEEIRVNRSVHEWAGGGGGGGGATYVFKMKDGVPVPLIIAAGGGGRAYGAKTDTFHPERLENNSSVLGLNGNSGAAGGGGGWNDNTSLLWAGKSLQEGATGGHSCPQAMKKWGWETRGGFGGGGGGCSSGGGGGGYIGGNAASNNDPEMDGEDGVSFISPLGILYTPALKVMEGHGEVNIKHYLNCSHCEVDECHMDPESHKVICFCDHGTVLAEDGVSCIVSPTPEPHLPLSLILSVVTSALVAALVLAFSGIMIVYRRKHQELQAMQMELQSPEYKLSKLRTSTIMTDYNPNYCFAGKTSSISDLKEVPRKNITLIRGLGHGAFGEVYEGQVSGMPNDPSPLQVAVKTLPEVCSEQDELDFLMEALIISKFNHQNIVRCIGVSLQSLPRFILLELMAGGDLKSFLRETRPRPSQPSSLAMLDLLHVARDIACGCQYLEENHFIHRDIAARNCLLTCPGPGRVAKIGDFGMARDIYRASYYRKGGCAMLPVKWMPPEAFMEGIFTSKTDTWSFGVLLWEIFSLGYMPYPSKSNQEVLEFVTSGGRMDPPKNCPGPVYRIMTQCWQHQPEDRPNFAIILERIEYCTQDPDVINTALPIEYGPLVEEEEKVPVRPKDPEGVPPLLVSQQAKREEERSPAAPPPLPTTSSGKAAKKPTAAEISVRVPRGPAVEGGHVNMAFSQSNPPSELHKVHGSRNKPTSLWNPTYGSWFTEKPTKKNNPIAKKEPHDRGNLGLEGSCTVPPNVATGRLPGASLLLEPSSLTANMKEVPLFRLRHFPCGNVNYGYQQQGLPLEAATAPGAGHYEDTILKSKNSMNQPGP
T2 sequence (P08581 956-1390 limits assumed): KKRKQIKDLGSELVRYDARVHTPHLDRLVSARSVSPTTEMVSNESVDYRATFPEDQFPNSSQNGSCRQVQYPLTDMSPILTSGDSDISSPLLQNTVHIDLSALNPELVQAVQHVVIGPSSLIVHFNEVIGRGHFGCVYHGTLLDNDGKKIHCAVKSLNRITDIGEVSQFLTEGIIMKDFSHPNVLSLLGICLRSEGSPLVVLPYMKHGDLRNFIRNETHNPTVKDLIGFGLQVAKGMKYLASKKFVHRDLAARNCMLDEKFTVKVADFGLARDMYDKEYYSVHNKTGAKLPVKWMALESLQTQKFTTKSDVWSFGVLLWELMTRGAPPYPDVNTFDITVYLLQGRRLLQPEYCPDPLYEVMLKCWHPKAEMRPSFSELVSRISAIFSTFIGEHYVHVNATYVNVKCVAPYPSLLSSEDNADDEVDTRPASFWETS

Consider `CNC(=O)c1cc(F)cc(F)c1Nc1nc(Nc2ccc3c(c2)CCN(CCOC)CC3)ncc1Cl` [Example 1277, 2-{5-Chloro-2-[3-(2-methoxy-ethyl)-2,3,4,5-tetrahydro-1H-3-benzazepin-7-ylamino]-pyrimidin-4-ylamino}-3,5-difluoro-N-methyl-benzamide], for which the IC50 in assay [1] and in assay [2] was 100 to 1000 nM throughout.
As to `CNC(=O)c1cc(F)cc(F)c1Nc1nc(Nc2ccc3c(c2)NC(=O)CCC3)ncc1Cl` [Example 1278, 2-[5-Chloro-2-(2-oxo-2,3,4,5-tetrahydro-1H-1-benzazepin-8-ylamino)-pyrimidin-4-ylamino]-3,5-difluoro-N-methyl-benzamide], the IC50 in assay [1] and in assay [2] was below 100 nM each time.
For the compound `C#CCNC(=O)c1cccc(F)c1Nc1nc(Nc2ccc3c(c2)NC(=O)C(NC(=O)C(F)(F)F)CC3(C)C)ncc1Cl` (stereo not shown) [Example 1279, 2-{5-Chloro-2-[5,5-dimethyl-2-oxo-3-(2,2,2-trifluoro-acetylamino)-2,3,4,5-tetrahydro-1H-1-benzazepin-8-ylamino]-pyrimidin-4-ylamino}-3-fluoro-N-prop-2-ynyl-benzamide], the IC50 in assay [1] was 100 to 1000 nM; in assay [2] it was below 100 nM.
As for `C#CCNC(=O)c1cccc(F)c1Nc1nc(Nc2ccc3c(c2)NC(=O)C(N)CC3(C)C)ncc1Cl` (stereo not shown) [Example 1280, 2-[2-(3-Amino-5,5-dimethyl-2-oxo-2,3,4,5-tetrahydro-1H-1-benzazepin-8-ylamino)-5-chloro-pyrimidin-4-ylamino]-3-fluoro-N-prop-2-ynyl-benzamide], the IC50 in assay [1] and in assay [2] was below 100 nM each time.
On to `O=C1CCCc2ccc(Nc3ncc(Cl)c(Nc4c(F)cccc4OC4CCOCC4)n3)cc2N1` [Example 1281, 8-{5-Chloro-4-[2-fluoro-6-(tetrahydro-pyran-4-yloxy)-phenylamino]-pyrimidin-2-ylamino}-1,3,4,5-tetrahydro-1-benzazepin-2-one], for which the IC50 in assay [1] was in the range of 100 to 1000 nM; in assay [2] it was 1000 to 10000 nM.
`COCCN1CCc2ccc(Nc3ncc(Cl)c(Nc4c(F)cccc4OC4CCOCC4)n3)cc2CC1` [Example 1282, 5-Chloro-N(4)-[2-fluoro-6-(tetrahydro-pyran-4-yloxy)-phenyl]-N(2)-[3-(2-methoxy-ethyl)-2,3,4,5-tetrahydro-1H-3-benzazepin-7-yl]-pyrimidine-2,4-diamine]: the IC50 is below 100 nM in assay [1] and 1000 to 10000 nM in assay [2].
Regarding `O=C1CCCc2ccc(Nc3ncc(Cl)c(Nc4c(F)cccc4OCCCOCc4ccccc4)n3)cc2N1` [Example 1283, 8-{4-[2-(3-Benzyloxy-propoxy)-6-fluoro-phenylamino]-5-chloro-pyrimidin-2-ylamino}-1,3,4,5-tetrahydro-1-benzazepin-2-one], the IC50 in assay [1] is 1000 to 10000 nM; in assay [2] it was above 10000 nM.
The matching figures for `COCCN1CCc2ccc(Nc3ncc(Cl)c(Nc4c(F)cccc4OCCCOCc4ccccc4)n3)cc2CC1` [Example 1284, N(4)-[2-(3-Benzyloxy-propoxy)-6-fluoro-phenyl]-5-chloro-N(2)-[3-(2-methoxy-ethyl)-2,3,4,5-tetrahydro-1H-3-benzazepin-7-yl]-pyrimidine-2,4-diamine]: 100 to 1000 nM and 1000 to 10000 nM.
Consider `O=C1CCCc2ccc(Nc3ncc(Cl)c(Nc4c(F)cc(F)cc4N4CCOCC4)n3)cc2N1` [Example 1286, 8-[5-Chloro-4-(2,4-difluoro-6-morpholin-4-yl-phenylamino)-pyrimidin-2-ylamino]-1,3,4,5-tetrahydro-1-benzazepin-2-one], for which the IC50 in assay [1] and in assay [2] was 1000 to 10000 nM in each case.
`COCCN1CCc2ccc(Nc3ncc(Cl)c(Nc4c(F)cc(F)cc4N4CCOCC4)n3)cc2CC1` [Example 1287, 5-Chloro-N(4)-(2,4-difluoro-6-morpholin-4-yl-phenyl)-N(2)-[3-(2-methoxy-ethyl)-2,3,4,5-tetrahydro-1H-3-benzazepin-7-yl]-pyrimidine-2,4-diamine]: the IC50 lay in the range of 100 to 1000 nM in assay [1] and 1000 to 10000 nM in assay [2].
Take `CNC(=O)c1cccc(F)c1Nc1nc(Nc2ccc3c(c2)NC(=O)C(N2CCOCC2)CC3(C)C)ncc1Cl` (stereo not shown) [Example 1288, 2-[5-Chloro-2-(5,5-dimethyl-3-morpholin-4-yl-2-oxo-2,3,4,5-tetrahydro-1H-1-benzazepin-8-ylamino)-pyrimidin-4-ylamino]-3-fluoro-N-methyl-benzamide]: the IC50 in assay [1] was 100 to 1000 nM; in assay [2], below 100 nM.
On to `C#CCNC(=O)c1cccc(F)c1Nc1nc(Nc2ccc3c(c2)NC(=O)C(NC(C)=O)CC3(C)C)ncc1Cl` (stereo not shown) [Example 1290, 2-[2-(3-Acetylamino-5,5-dimethyl-2-oxo-2,3,4,5-tetrahydro-1H-1-benzazepin-8-ylamino)-5-chloro-pyrimidin-4-ylamino]-3-fluoro-N-prop-2-ynyl-benzamide], for which the IC50 in assay [1] is 1000 to 10000 nM; in assay [2], below 100 nM.
Turning to `CNC(=O)c1sccc1Nc1nc(Nc2ccc3c(c2)NC(=O)C(NC(C)=O)CC3(C)C)ncc1Cl` (stereo not shown) [Example 1291, 3-[2-(3-Acetylamino-5,5-dimethyl-2-oxo-2,3,4,5-tetrahydro-1H-1-benzazepin-8-ylamino)-5-chloro-pyrimidin-4-ylamino]-thiophene-2-carboxylic acid methylamide], the IC50 in assay [1] was 1000 to 10000 nM; in assay [2], below 100 nM.
The matching figures for `C#CCNC(=O)c1cccc(F)c1Nc1nc(Nc2ccc3c(c2)NC(=O)C(NC(=O)COC)CC3(C)C)ncc1Cl` (stereo not shown) [Example 1293, 2-{5-Chloro-2-[3-(2-methoxy-acetylamino)-5,5-dimethyl-2-oxo-2,3,4,5-tetrahydro-1H-1-benzazepin-8-ylamino]-pyrimidin-4-ylamino}-3-fluoro-N-prop-2-ynyl-benzamide]: below 100 nM and below 100 nM.
Regarding `CNC(=O)c1cccc(F)c1Nc1nc(Nc2ccc3c(c2)NCC(NCCOC)CC3(C)C)ncc1Cl` (stereo not shown) [Example 1294, 2-{5-Chloro-2-[3-(2-methoxy-ethylamino)-5,5-dimethyl-2,3,4,5-tetrahydro-1H-1-benzazepin-8-ylamino]-pyrimidin-4-ylamino}-3-fluoro-N-methyl-benzamide], the IC50 in assay [1] and in assay [2] was below 100 nM each time.
On to `C#CCNC(=O)c1cccc(F)c1Nc1nc(Nc2ccc3c(c2)NC(=O)C(NC(=O)N2CCCC2)CC3(C)C)ncc1Cl` (stereo not shown) [Example 1296, Pyrrolidine-1-carboxylic acid {8-[5-chloro-4-(2-fluoro-6-prop-2-ynylcarbamoyl-phenylamino)-pyrimidin-2-ylamino]-5,5-dimethyl-2-oxo-2,3,4,5-tetrahydro-1H-1-benzazepin-3-yl}-amide], for which the IC50 in assay [1] is 100 to 1000 nM; in assay [2], below 100 nM.
Taken in the same sequence, the figures for `CN1C(=O)OCCc2cc(Nc3ncc(Cl)c(Nc4c(F)cccc4OC4CCOC4)n3)ccc21` (stereo not shown) [Example 1300, 2-{5-Chloro-4-[2-fluoro-6-(tetrahydro-furan-3-yloxy)-phenylamino]-pyrimidin-2-ylamino}-5-methyl-8,9-dihydro-5H-7-oxa-5-aza-benzocyclohepten-6-one] were 100 to 1000 nM and below 100 nM.
The matching figures for `CNC(=O)c1ccccc1Nc1nc(Nc2ccc3c(c2)CNC(=O)CCN3C(=O)C(F)(F)F)ncc1Cl` [Example 1301, 2-{5-Chloro-2-[4-oxo-1-(2,2,2-trifluoro-acetyl)-1,2,3,4,5,6-hexahydro-benzo[b][1,5]diazocin-8-ylamino]-pyrimidin-4-ylamino}-N-methyl-benzamide]: below 100 nM and below 100 nM.
On to `CNC(=O)c1ccccc1Nc1nc(Nc2ccc3c(c2)CNC(=O)CCN3)ncc1Cl` [Example 1302, 2-[5-Chloro-2-(4-oxo-1,2,3,4,5,6-hexahydro-benzo[b][1,5]diazocin-8-ylamino)-pyrimidin-4-ylamino]-N-methyl-benzamide], for which the IC50 in assay [1] and in assay [2] was below 100 nM in each case.
With `CNS(=O)(=O)c1ccccc1Nc1nc(Nc2ccc3c(c2)CNC(=O)CCN3C(=O)C(F)(F)F)ncc1Cl` [Example 1303, 2-{5-Chloro-2-[4-oxo-1-(2,2,2-trifluoro-acetyl)-1,2,3,4,5,6-hexahydro-benzo[b][1,5]diazocin-8-ylamino]-pyrimidin-4-ylamino}-N-methyl-benzenesulfonamide], the half-maximal inhibitory concentration (IC50) in assay [1] and in assay [2] was below 100 nM in each case.
Consider `CNC(=O)c1ccccc1Nc1nc(Nc2ccc3c(c2)CNC(=O)CCN3C(C)=O)ncc1Cl` [Example 1305, 2-[2-(1-Acetyl-4-oxo-1,2,3,4,5,6-hexahydro-benzo[b][1,5]diazocin-8-ylamino)-5-chloro-pyrimidin-4-ylamino]-N-methyl-benzamide], for which the IC50 in assay [1] and in assay [2] was below 100 nM throughout.
`CN1C(=O)OCCc2cc(Nc3ncc(Cl)c(Oc4c(F)cccc4OC4CCOC4)n3)ccc21` (stereo not shown) [Example 1307, 2-{5-Chloro-4-[2-fluoro-6-(tetrahydro-furan-3-yloxy)-phenoxy]-pyrimidin-2-ylamino}-5-methyl-8,9-dihydro-5H-7-oxa-5-aza-benzocyclohepten-6-one]: the figures for the IC50 in assay [1] and in assay [2] were 100 to 1000 nM and 1000 to 10000 nM, respectively.
Taken in the same sequence, the figures for `COCCN1CCc2ccc(Nc3ncc(Cl)c(Oc4c(F)cccc4OC4CCOC4)n3)cc2CC1` (stereo not shown) [Example 1308, {5-Chloro-4-[2-fluoro-6-(tetrahydro-furan-3-yloxy)-phenoxy]-pyrimidin-2-yl}-[3-(2-methoxy-ethyl)-2,3,4,5-tetrahydro-1H-3-benzazepin-7-yl]-amine] were 100 to 1000 nM and 1000 to 10000 nM.

As a reminder, the IC50 is the concentration that gives 50% inhibition.
